From PubChem BioAssay AID1963827 (Molecular Pharmacology Branch, DTP, NCI, 2024)

Tested on: 994946-033-R-J1-PDC complex spheroid viability
Assay: Anticancer human tumor 994946-033-R-J1-PDC patient-derived melanoma cell line growth inhibition [POLQ]
Conditions: for IC50: curve of first compound; for viability, T/C: stronger effect = lower value
Procedure, shortened: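 Complex spheroid viability model combining PDC tumour cells with endothelial (HUVEC) and MSC stromal cells. Novobiocin, ART-558 or RP6685 were tested singly and in combination with standard and investigational anticancer drugs. Each was titrated in half-log steps from near clinical Cmax, or from 10 microM where Cmax was unknown.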

[1] = second compound 0.0316 µM, first compound 0.0316 µM
[2] = second compound 0.0316 µM, first compound 0.1 µM
[3] = second compound 0.0316 µM, first compound 0.316 µM
[4] = second compound 0.0316 µM, first compound 1 µM
[5] = second compound 0.0316 µM, first compound 3.16 µM
[6] = second compound 0.0316 µM, first compound 10 µM
[7] = second compound 0.1 µM, first compound 0.0316 µM
[8] = second compound 0.1 µM, first compound 0.1 µM
[9] = second compound 0.1 µM, first compound 0.316 µM
[10] = second compound 0.1 µM, first compound 1 µM
[11] = second compound 0.1 µM, first compound 3.16 µM
[12] = second compound 0.1 µM, first compound 10 µM
[13] = second compound 0.316 µM, first compound 0.0316 µM
[14] = second compound 0.316 µM, first compound 0.1 µM
[15] = second compound 0.316 µM, first compound 0.316 µM
[16] = second compound 0.316 µM, first compound 1 µM
[17] = second compound 0.316 µM, first compound 3.16 µM
[18] = second compound 0.316 µM, first compound 10 µM
[19] = second compound 1 µM, first compound 0.0316 µM
[20] = second compound 1 µM, first compound 0.1 µM
[21] = second compound 1 µM, first compound 0.316 µM
[22] = second compound 1 µM, first compound 1 µM
[23] = second compound 1 µM, first compound 3.16 µM
[24] = second compound 1 µM, first compound 10 µM
[25] = second compound 3.16 µM, first compound 0.0316 µM
[26] = second compound 3.16 µM, first compound 0.1 µM
[27] = second compound 3.16 µM, first compound 0.316 µM
[28] = second compound 3.16 µM, first compound 1 µM
[29] = second compound 3.16 µM, first compound 3.16 µM
[30] = second compound 3.16 µM, first compound 10 µM
[31] = second compound 10 µM, first compound 0.0316 µM
[32] = second compound 10 µM, first compound 0.1 µM
[33] = second compound 10 µM, first compound 0.316 µM
[34] = second compound 10 µM, first compound 1 µM
[35] = second compound 10 µM, first compound 3.16 µM
[36] = second compound 10 µM, first compound 10 µM
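Further: spheroids exposed to drugs for 7 days.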
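Wherever viability, T/C is given: 100% = DMSO vehicle treated spheroids.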

Question: What does the source list for `C#Cc1c(F)ccc2cc(O)cc(-c3ncc4c(N5CC6CCC(C5)N6)nc(OCC56CCCN5CC(F)C6)nc4c3F)c12` (stereo not drawn) + Nc1ccc(C#CCN(C(=O)Cc2ncc(C(F)(F)F)cc2C(F)(F)F)c2ccc(F)cc2)nn1?
Answer: IC50 (second compound 0.0316 µM): 4.28 µM; IC50 (second compound 0.1 µM): 5.46 µM; IC50 (second compound 0.316 µM): 5.99 µM; IC50 (second compound 1 µM): 3.66 µM; IC50 (second compound 3.16 µM): 5.38 µM; IC50 (second compound 10 µM): 5.09 µM; viability, T/C [1]: 101%; viability, T/C [2]: 109%; viability, T/C [3]: 91.9%; viability, T/C [4]: 82.5%; viability, T/C [5]: 67.2%; viability, T/C [6]: 11.7%; viability, T/C [7]: 90.2%; viability, T/C [8]: 88.9%; viability, T/C [9]: 97.8%; viability, T/C [10]: 74.1%; viability, T/C [11]: 81%; viability, T/C [12]: 19.1%; viability, T/C [13]: 100%; viability, T/C [14]: 84.7%; viability, T/C [15]: 74.8%; viability, T/C [16]: 96.2%; viability, T/C [17]: 84.1%; viability, T/C [18]: 22.3%; viability, T/C [19]: 80.6%; viability, T/C [20]: 89.8%; viability, T/C [21]: 90.1%; viability, T/C [22]: 66.5%; viability, T/C [23]: 59.8%; viability, T/C [24]: 5.38%; viability, T/C [25]: 74.4%; viability, T/C [26]: 85.1%; viability, T/C [27]: 102%; viability, T/C [28]: 79.1%; viability, T/C [29]: 81.1%; viability, T/C [30]: 13.7%; viability, T/C [31]: 80%; viability, T/C [32]: 106%; viability, T/C [33]: 76.2%; viability, T/C [34]: 112%; viability, T/C [35]: 71%; viability, T/C [36]: 20.3%

Question: Which IC50 (second compound 0.0316 µM) does the source give for `CC1COCCN1c1cc(C2(O)CC3CCC(C2)O3)c2cnn(-c3ccn[nH]3)c2n1` (stereo not drawn) + Nc1ccc(C#CCN(C(=O)Cc2ncc(C(F)(F)F)cc2C(F)(F)F)c2ccc(F)cc2)nn1 here?
Answer: 0.0513 µM

Question: What about the IC50 (second compound 0.1 µM) of the same molecule?
Answer: < 0.0316 µM

Question: And the IC50 (second compound 0.316 µM)?
Answer: < 0.0316 µM

Question: And the IC50 (second compound 1 µM)?
Answer: 0.0687 µM

Question: And the IC50 (second compound 3.16 µM)?
Answer: 0.0386 µM

Question: And the IC50 (second compound 10 µM)?
Answer: < 0.0316 µM

Question: What about the viability, T/C [1] of the same molecule?
Answer: 59.9%

Question: What about the viability, T/C [2] of the same molecule?
Answer: 36.3%

Question: And the viability, T/C [3]?
Answer: 23.4%

Question: What about the viability, T/C [4] of the same molecule?
Answer: 18.8%

Question: And the viability, T/C [5]?
Answer: 13.9%

Question: And the viability, T/C [6]?
Answer: 6.85%

Question: And the viability, T/C [7]?
Answer: 43.3%

Question: What about the viability, T/C [8] of the same molecule?
Answer: 27.6%

Question: And the viability, T/C [9]?
Answer: 24.2%

Question: What about the viability, T/C [10] of the same molecule?
Answer: 19.9%

Question: And the viability, T/C [11]?
Answer: 10.6%

Question: What about the viability, T/C [12] of the same molecule?
Answer: 9.96%

Question: And the viability, T/C [13]?
Answer: 48.5%

Question: And the viability, T/C [14]?
Answer: 24.9%

Question: What about the viability, T/C [15] of the same molecule?
Answer: 26.3%

Question: And the viability, T/C [16]?
Answer: 19.6%

Question: What about the viability, T/C [17] of the same molecule?
Answer: 17.6%

Question: And the viability, T/C [18]?
Answer: 9.49%

Question: And the viability, T/C [19]?
Answer: 74.5%

Question: And the viability, T/C [20]?
Answer: 31.9%

Question: What about the viability, T/C [21] of the same molecule?
Answer: 33.7%

Question: And the viability, T/C [22]?
Answer: 10.7%

Question: What about the viability, T/C [23] of the same molecule?
Answer: 13%

Question: And the viability, T/C [24]?
Answer: 9.29%

Question: What about the viability, T/C [25] of the same molecule?
Answer: 55.6%

Question: What about the viability, T/C [26] of the same molecule?
Answer: 22.8%

Question: And the viability, T/C [27]?
Answer: 19.8%

Question: And the viability, T/C [28]?
Answer: 21.4%

Question: What about the viability, T/C [29] of the same molecule?
Answer: 17.8%

Question: And the viability, T/C [30]?
Answer: 8.76%

Question: And the viability, T/C [31]?
Answer: 38.3%

Question: And the viability, T/C [32]?
Answer: 54.1%

Question: What about the viability, T/C [33] of the same molecule?
Answer: 24.6%

Question: And the viability, T/C [34]?
Answer: 23.6%

Question: What about the viability, T/C [35] of the same molecule?
Answer: 14.6%

Question: What about the viability, T/C [36] of the same molecule?
Answer: 5.15%

Question: With `CCc1cc2c(N3CCc4c(cc(Cn5ccnc5)cc4-c4cn(C)nc4C(F)(F)F)C3=O)cc(C)nc2c(OC)n1` + Nc1ccc(C#CCN(C(=O)Cc2ncc(C(F)(F)F)cc2C(F)(F)F)c2ccc(F)cc2)nn1 as the molecule, how does the IC50 (second compound 0.0316 µM) read?
Answer: 8.52 µM

Question: And the IC50 (second compound 0.1 µM)?
Answer: > 10 µM

Question: And the IC50 (second compound 0.316 µM)?
Answer: > 10 µM

Question: And the IC50 (second compound 1 µM)?
Answer: > 10 µM

Question: And the IC50 (second compound 3.16 µM)?
Answer: > 10 µM

Question: What about the IC50 (second compound 10 µM) of the same molecule?
Answer: > 10 µM

Question: What about the viability, T/C [1] of the same molecule?
Answer: 81.9%

Question: What about the viability, T/C [2] of the same molecule?
Answer: 107%

Question: And the viability, T/C [3]?
Answer: 72.6%

Question: And the viability, T/C [4]?
Answer: 68.3%

Question: And the viability, T/C [5]?
Answer: 103%

Question: And the viability, T/C [6]?
Answer: 44%

Question: What about the viability, T/C [7] of the same molecule?
Answer: 78.7%

Question: What about the viability, T/C [8] of the same molecule?
Answer: 102%

Question: And the viability, T/C [9]?
Answer: 94.4%

Question: And the viability, T/C [10]?
Answer: 93%

Question: What about the viability, T/C [11] of the same molecule?
Answer: 71.2%

Question: What about the viability, T/C [12] of the same molecule?
Answer: 54.3%

Question: And the viability, T/C [13]?
Answer: 73%

Question: And the viability, T/C [14]?
Answer: 79.8%

Question: What about the viability, T/C [15] of the same molecule?
Answer: 75.5%

Question: What about the viability, T/C [16] of the same molecule?
Answer: 87%

Question: What about the viability, T/C [17] of the same molecule?
Answer: 64%

Question: And the viability, T/C [18]?
Answer: 89.1%

Question: What about the viability, T/C [19] of the same molecule?
Answer: 98.6%

Question: And the viability, T/C [20]?
Answer: 71.5%

Question: And the viability, T/C [21]?
Answer: 89.5%

Question: What about the viability, T/C [22] of the same molecule?
Answer: 51.8%

Question: What about the viability, T/C [23] of the same molecule?
Answer: 78.5%

Question: What about the viability, T/C [24] of the same molecule?
Answer: 72.2%

Question: And the viability, T/C [25]?
Answer: 93.4%

Question: And the viability, T/C [26]?
Answer: 84.3%

Question: What about the viability, T/C [27] of the same molecule?
Answer: 81.9%

Question: What about the viability, T/C [28] of the same molecule?
Answer: 65.7%

Question: What about the viability, T/C [29] of the same molecule?
Answer: 86.5%

Question: What about the viability, T/C [30] of the same molecule?
Answer: 65.5%

Question: What about the viability, T/C [31] of the same molecule?
Answer: 107%

Question: And the viability, T/C [32]?
Answer: 96.1%

Question: And the viability, T/C [33]?
Answer: 106%

Question: And the viability, T/C [34]?
Answer: 89.2%

Question: What about the viability, T/C [35] of the same molecule?
Answer: 69.9%

Question: And the viability, T/C [36]?
Answer: 49.9%

Question: What does the source list for `O=C(Nc1ccc(O)c(NS(=O)(=O)c2ccc(F)cc2)c1)c1ccc(-c2ccccc2)cc1` + Nc1ccc(C#CCN(C(=O)Cc2ncc(C(F)(F)F)cc2C(F)(F)F)c2ccc(F)cc2)nn1?
Answer: IC50 (second compound 0.0316 µM): 7.1 µM; IC50 (second compound 0.1 µM): 4.79 µM; IC50 (second compound 0.316 µM): 7.55 µM; IC50 (second compound 1 µM): 8.49 µM; IC50 (second compound 3.16 µM): 9.09 µM; IC50 (second compound 10 µM): > 10 µM; viability, T/C [1]: 79.4%; viability, T/C [2]: 95.7%; viability, T/C [3]: 92.9%; viability, T/C [4]: 77.1%; viability, T/C [5]: 84.1%; viability, T/C [6]: 35.6%; viability, T/C [7]: 104%; viability, T/C [8]: 94.1%; viability, T/C [9]: 100%; viability, T/C [10]: 111%; viability, T/C [11]: 59.8%; viability, T/C [12]: 32.7%; viability, T/C [13]: 88.2%; viability, T/C [14]: 134%; viability, T/C [15]: 97.6%; viability, T/C [16]: 89.9%; viability, T/C [17]: 93.1%; viability, T/C [18]: 36.7%; viability, T/C [19]: 98.1%; viability, T/C [20]: 74.2%; viability, T/C [21]: 133%; viability, T/C [22]: 117%; viability, T/C [23]: 92.8%; viability, T/C [24]: 42.9%; viability, T/C [25]: 114%; viability, T/C [26]: 84.7%; viability, T/C [27]: 98.4%; viability, T/C [28]: 94.4%; viability, T/C [29]: 67.4%; viability, T/C [30]: 48.8%; viability, T/C [31]: 78.7%; viability, T/C [32]: 78.4%; viability, T/C [33]: 79%; viability, T/C [34]: 96.5%; viability, T/C [35]: 76%; viability, T/C [36]: 53.1%
